“Also recorded” adds a separate entry of the source.
Tests used:
TNBC cell line DU4475 = experiment: Immunofluorescent staining of nuclear ERα in TNBC cell line DU4475 after EZH2 inhibitor; type: cell-based; settings: TNBC cell line DU4475 after exposure to compound
MMECs = experiment: Immunofluorescent staining of nuclear ERα in MMECs after compound exposure; type: cell-based, mouse; settings: MMECs after exposure to compound
Method: Mouse primary mammary epithelial fragments were isolated with 0.2% collagenase for 1 h at +37° C. Media used for the mouse tissue was DMEM/F12 (Thermo Fisher Scientific) supplemented with 5% horse serum, 5 ug/mL Insulin, 1 µg/mL hydrocortisone, 10 ng/mL EGF, and 100 U PenStrep.
For immunofluorescent analysis 3D cultured breast cancer fragments were fixed with 4% paraformaldehyde for 20 min at room temperature and washed three times with PBS. The tissue fragments were permeabilized with 0.25% Triton X-100 in PBS for 10 min at RT and blocked in IF buffer (7.7 mM NaN3, 0.1% BSA, 0.2% Triton X-100, and 0.05% Tween 20 in PBS) supplemented with 10% (vol/vol) normal goat serum for1-1.5 h. The fragments were then incubated with the primary antibody diluted in blocking solution overnight at +4° C. Following incubation, fragments were washed three times with IF buffer (20 min each wash) and then incubated with the appropriate Alexa Fluor secondary antibody diluted in IF buffer with 10% goat serum. After 60 min of incubation at RT, the fragments were washed with IF buffer as before and the nuclei were counterstained with Hoechst 33258 (Sigma). Slides containing tissue fragments were mounted with ImmuMount reagent. Images of the structures were acquired using a Leica TCS SP8 CARS confocal microscope using a HC PL APO CS2 40x objective. […]

PDEC-N and PDEC-BC = experiment: Immunofluorescent staining of nuclear ERα and phosphorylated p38 in PDEC-N and PDEC-BC after compound exposure; type: cell-based, human
Method: Fresh tissue was obtained from elective breast cancer surgeries. Tissue was collected from both the tumor tissue and the area surrounding the tumor (non-tumor samples). Also tissue from reduction mammoplasties (RMP) were collected. From every tumor, one portion was taken for immunohistochemical analysis (IHC), for DNA/RNA/protein isolation, and the rest was used for isolation of fragments and 3D culture. For isolation of human breast cancer fragments, breast cancer tissue was incubated with 0.2% collagenase in MammoCult media produced by StemCell technologies (supplemented with 4 ug/mL heparin, MammoCult proliferation supplements, 0.1 µg/mL 10.000 UI/mL PenStrep, Amphotericin, and 25 µg/mL Gentamycin) with gentle shaking at 37° C. overnight. The resulting cell suspension was then centrifuged at 1,300 rpm for 3 min, washed once with MammoCult and plated in 8-chamber plates. Matrices used for the cultures were: Agarose (UltraPure™ Low Melting Point Agarose, Invitrogen™), Collagen (Collagen I Rat tail, Corning), Matrigel (Matrigel Basement Matrix Growth Factor Reduced, 8.8 mg/mL, Corning), Egg white, Ovomucine, GrowDex (15 mg/mL, UPM-Kymmene OYj), Alginate (Alginic acid sodium salt, Aldrich) and Alginate-RGD (Sodium Alginate MVG GRGDSP, NovaMatrix, NOVATACH). Ovomucin was isolated from chicken egg whites according to an established protocol (Omana and Wu, 2009, J Agric Food Chem 57, 3596-3603). Briefly, ovomucin was isolated from egg white using isoelectric precipitation in the presence of 100 mM NaCl solution at pH adjusted to 6.0. The resulting mixture was stored overnight at 4° C. in a refridgerator followed by centrifugation. The precipitate was re-suspended in 500 mM NaCl solution at pH 6.0 again and stored overnight at 4° C. The dispersion was centrifuged, and the precipitate was purified by dialyzing against water overnight. Dialysed sample was freeze-dried under the vacuum. For gelation, the solid ovomucin powder was dissolved in MilliQ (18 W) water using Ultra-Turrax (IKA) mixer.
For immunofluorescent analysis 3D cultured breast cancer fragments were fixed with 4% paraformaldehyde for 20 min at room temperature and washed three times with PBS. The tissue fragments were permeabilized with 0.25% Triton X-100 in PBS for 10 min at RT and blocked in IF buffer (7.7 mM NaN3, 0.1% BSA, 0.2% Triton X-100, and 0.05% Tween 20 in PBS) supplemented with 10% (vol/vol) normal goat serum for1-1.5 h. The fragments were then incubated with the primary antibody diluted in blocking solution overnight at +4° C. Following incubation, fragments were washed three times with IF buffer (20 min each wash) and then incubated with the appropriate Alexa Fluor secondary antibody diluted in IF buffer with 10% goat serum. After 60 min of incubation at RT, the fragments were washed with IF buffer as before and the nuclei were counterstained with Hoechst 33258 (Sigma). Slides containing tissue fragments were mounted with ImmuMount reagent. Images of the structures were acquired using a Leica TCS SP8 CARS confocal microscope using a HC PL APO CS2 40x objective.
(§1) We observed stress-responsive mitogen-activated protein kinase (MAPKs) pathway activated in the in LMx-Ag, compared to LMx-Al. The nuclear expression of phosphorylated p38 was also visible in the MMECs cultured in LMx-Ag. To confirm the role of stress-responsive mitogen-activated protein kinases in the ERα activation, we used anisomycin to directly activate the pathway in TNBC cell line, DU4475. […] We used inhibitor of the methyltransferase EZH2, which mediates the silencing of ERα and observed the retained expression of ERα (FIG. 4D).

TNBC cell line, DU4475 = experiment: Western blot of ERα in TNBC cell line after anisomycin treatment; type: cell-based
From the text: as §1

[1] = tested on: ERα downstream targets PGR and GREB1 in PDEC-BC; experiment: QRT-PCR of ERα target genes in PDEC-BC cultures after tamoxifen/antiestrogen treatment; type: cell-based, human
Method: Instead of anisomycin, the stress activated protein kinase pathway is also activated by multiple other factors e.g oxidative stress. We observed, if the PDEC cultures were performed under a higher oxygen concentration, such as in air-liquid interface, the functional ERα was preserved together with the activation of p38 (FIG. 5A). We treated these PDEC-BC with antiestrogens and observed a suppression in ERα downstream targets PGR and GREB1 (FIG. 5B).
We exposed the human PDEC-N and PDEC-BC cultures to the additional compressive forces with the magnet mediated mechanical compression (FIG. 5C). […] We treated the compressed PDEC-BC with tamoxifen and observed a suppression in ERα downstream targets PGR and GREB1 (FIG. 5E).

[2] = PDEC-BC (PDEC-T) after exposure to compound
[3] = PDEC-N after exposure to compound
[4] = PDEC-BC exposed to magnet-mediated compression

SMILES	nuclear ERα (immunofluorescent staining) (TNBC cell line DU4475)	nuclear ERα (immunofluorescent staining) (MMECs)	nuclear ERα (immunofluorescent staining) (PDEC-N and PDEC-BC; [2])	nuclear ERα (immunofluorescent staining) (PDEC-N and PDEC-BC; [3])	phosphorylated p38 (immunofluorescent staining) (PDEC-N and PDEC-BC; PDEC-BC after exposure to compound)	phosphorylated p38 (immunofluorescent staining) (PDEC-N and PDEC-BC; [3])	ERα expression (Western blot) (TNBC cell line, DU4475)	GREB1 expression [1, 4]	PGR expression (QRT-PCR) [1, 4]	PGR expression (QRT-PCR) ([1]; PDEC-BC exposed to magnet-mediated compression, listed as Tamoxifen)	PGR expression (QRT-PCR) ([1]; air-liquid interface (ALI) cultured PDEC-BC, o/n treatment)
CC[C@H](C)n1cc(C)c2c(C(=O)NCc3c(C)cc(C)[nH]c3=O)cc(-c3ccc(N4CCNCC4)nc3)cc21 [GSK-126]	activation of nuclear ERα	activation of nuclear ERα	activation of nuclear ERα	activation of nuclear ERα	–	–	–	–	–	–	–
COc1ccc(C[C@H]2NC[C@H](O)[C@H]2OC(C)=O)cc1 [anisomycin]	–	activation of nuclear ERα	activation of nuclear ERα	activation of nuclear ERα	activation of phosphorylated-38	activation of phosphorylated-38	able to activate the ERα expression; also recorded: upregulation of ERα	–	–	–	–
CC/C(=C(\c1ccccc1)c1ccc(OCCN(C)C)cc1)c1ccccc1 [tamoxifen]	–	–	–	–	–	–	–	suppression	suppression	suppresses	downregulation

— patent publication US20230151334A1, “CULTURE PLATFORMS, METHODS, AND USES THEREOF” (HELSINGIN YLIOPISTO, priority 2020, published 2023)
